Literature values, collected in article PMC9963398, “Discovery of New Quinolone-Based Diarylamides as Potent B-RAF^V600E/C-RAF Kinase Inhibitors Endowed with Promising In Vitro Anticancer Activity” (International Journal of Molecular Sciences, 2023).

Experiments:
SNB-19 = tested on: SNB-19; design: method as in PMID 32745753; details: SNB-19, CNS cancer; cited from earlier work
MDA-MB-231/ATCC = details: Breast cancer; cited from earlier work
T-47D = tested on: T-47D; design: method as in PMID 32745753; details: Breast cancer; cited from earlier work
HCC-2998 = tested on: HCC-2998; design: method as in PMID 32745753; details: HCC-2998, Colon cancer; cited from earlier work
HOP-62 = tested on: HOP-62; design: method as in PMID 32745753; details: HOP-62, NSCL cancer; cited from earlier work
K-562 = tested on: K-562; design: method as in PMID 32745753; details: K-562, Leukemia; cited from earlier work
SF-539 = tested on: SF-539; design: method as in PMID 32745753; details: SF-539, CNS cancer; cited from earlier work
MDA-MB-435 = tested on: MDA-MB-435; design: method as in PMID 32745753; details: MDA-MB-435, Melanoma; cited from earlier work
SR = tested on: SR; design: method as in PMID 32745753; details: Leukemia; cited from earlier work
HOP-92 = tested on: HOP-92; design: method as in PMID 32745753; details: HOP-92, NSCL cancer; cited from earlier work
NCI-H23 = tested on: NCI-H23; design: method as in PMID 32745753; details: NCI-H23, NSCL cancer; cited from earlier work
NCI-H460 = tested on: NCI-H460; design: method as in PMID 32745753; details: NCI-H460, NSCL cancer; cited from earlier work
ACHN = tested on: ACHN; design: method as in PMID 32745753; details: Renal cancer; cited from earlier work
OVCAR-8 = tested on: OVCAR-8; design: method as in PMID 32745753; details: OVCAR-8, Ovarian cancer; cited from earlier work
TK-10 = tested on: TK-10; design: method as in PMID 32745753; details: TK-10, Renal cancer; cited from earlier work
NCI-H226 = tested on: NCI-H226; design: method as in PMID 32745753; details: NCI-H226, NSCL cancer; cited from earlier work
M14 = tested on: M14; design: method as in PMID 32745753; details: M14, Melanoma; cited from earlier work
SK-MEL-2 = tested on: SK-MEL-2; design: method as in PMID 32745753; details: SK-MEL-2, Melanoma; cited from earlier work
UACC-62 = tested on: UACC-62; design: method as in PMID 32745753; details: UACC-62, Melanoma; cited from earlier work
HCT-116 = tested on: HCT-116; design: method as in PMID 32745753; details: HCT-116, Colon cancer; cited from earlier work
DU-145 = tested on: DU-145; design: method as in PMID 32745753; details: DU-145, Prostate cancer; cited from earlier work
HCT-15 = tested on: HCT-15; design: method as in PMID 32745753; details: HCT-15, Colon cancer; cited from earlier work
SK-MEL-5 = tested on: SK-MEL-5; design: method as in PMID 32745753; details: SK-MEL-5, Melanoma; cited from earlier work
NCI/ADR-RES = tested on: NCI/ADR-RES; design: method as in PMID 32745753; details: Ovarian cancer; cited from earlier work
SW-620 = tested on: SW-620; design: method as in PMID 32745753; details: SW-620, Colon cancer; cited from earlier work
OVCAR-4 = tested on: OVCAR-4; design: method as in PMID 32745753; details: OVCAR-4, Ovarian cancer; cited from earlier work
CCRF-CEM = tested on: CCRF-CEM; design: method as in PMID 32745753; details: Leukemia; cited from earlier work
SNB-75 = tested on: SNB-75; design: method as in PMID 32745753; details: SNB-75, CNS cancer; cited from earlier work
U251 = tested on: U251; design: method as in PMID 32745753; details: U251, CNS cancer; cited from earlier work
HT29 = tested on: HT29; design: method as in PMID 32745753; details: HT29, Colon cancer; cited from earlier work
IGROV1 = tested on: IGROV1; design: method as in PMID 32745753; details: IGROV1, Ovarian cancer; cited from earlier work
HL-60(TB) = tested on: HL-60(TB); design: method as in PMID 32745753; details: Leukemia; cited from earlier work
OVCAR-3 = tested on: OVCAR-3; design: method as in PMID 32745753; details: OVCAR-3, Ovarian cancer; cited from earlier work
LOX IMVI = tested on: LOX IMVI; design: method as in PMID 32745753; details: Melanoma; cited from earlier work
RPMI-8226 = tested on: RPMI-8226; design: method as in PMID 32745753; details: RPMI-8226, Leukemia; cited from earlier work
MALME-3M = tested on: MALME-3M; design: method as in PMID 32745753; details: Melanoma; cited from earlier work

For CNC(=O)c1cc(Oc2ccc(NC(=O)Nc3ccc(Cl)c(C(F)(F)F)c3)cc2)ccn1 [Sorafenib], the GI50 (SNB-19) is listed as 3400 nM, the GI50 (MDA-MB-231/ATCC) is listed as 1300 nM and the GI50 (T-47D) is listed as 1800 nM. For the same compound, the GI50 (HCC-2998) was 3000 nM, the GI50 (HOP-62) was 1900 nM and the GI50 (K-562) was 2800 nM. The GI50 (SF-539) was 1600 nM, the GI50 (MDA-MB-435) was 1800 nM and the GI50 (SR) was 3100 nM. For the same compound, the GI50 (HOP-92) was 1600 nM, the GI50 (NCI-H23) was 1800 nM and the GI50 (NCI-H460) was 2300 nM. For the same compound, the GI50 (ACHN) was 2800 nM, the GI50 (OVCAR-8) was 3000 nM and the GI50 (TK-10) was 4400 nM. For the same compound, the GI50 (NCI-H226) was 1900 nM, the GI50 (M14) was 2200 nM and the GI50 (SK-MEL-2) was 1800 nM. The GI50 (UACC-62) was 1700 nM, the GI50 (HCT-116) was 1700 nM and the GI50 (DU-145) was 3300 nM. The GI50 (HCT-15) was 2500 nM, the GI50 (SK-MEL-5) was 1500 nM and the GI50 (NCI/ADR-RES) was 2500 nM. For the same compound, the GI50 (SW-620) was 2800 nM, the GI50 (OVCAR-4) was 3500 nM and the GI50 (CCRF-CEM) was 2200 nM. For the same compound, the GI50 (SNB-75) was 3000 nM, the GI50 (U251) was 2100 nM and the GI50 (HT29) was 2200 nM. The GI50 (IGROV1) was 2600 nM, the GI50 (HL-60(TB)) was 1600 nM and the GI50 (OVCAR-3) was 2900 nM. For the same compound, the GI50 (LOX IMVI) was 1600 nM, the GI50 (RPMI-8226) was 1500 nM and the GI50 (MALME-3M) was 2200 nM.
